In the supplement of paper PMC6045584:
± gives the standard deviation of the averaged measurements.

Tests used:
AZD4547 = compound: COc1cc(CCc2cc(NC(=O)c3ccc(N4CC(C)NC(C)C4)cc3)n[nH]2)cc(OC)c1 [AZD4547]; assay: surviving fraction relative to DMSO-only wells; higher = less growth inhibition; details: exposure time: 5 days
How it was run: (§1)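 Tumour cell lines were seeded in log phase at 250–500 cells per well into 384-well plates. Starting 24 hours later, inhibitors were present continuously for five days at 0.5, 1, 5, 10, 50, 100, 500 and 1000 nM. Surviving fraction, from CellTiter-Glo luminescence, is normalised to the median of DMSO-only wells. Three screens per line were required, with replicate Pearson r >0.7 and median Z' >0.3 for a line to be kept.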

MK2206 = compound: NC1(c2ccc(-c3nc4ccn5c(=O)[nH]nc5c4cc3-c3ccccc3)cc2)CCC1 [MK2206]; assay: as above; details: exposure time: 5 days
How it was run: as §1

| Test System | surviving fraction (AZD4547; 0.5 nM) | surviving fraction (AZD4547; 1 nM) | surviving fraction (AZD4547; 5 nM) | surviving fraction (AZD4547; 10 nM) | surviving fraction (AZD4547; 50 nM) | surviving fraction (AZD4547; 100 nM) | surviving fraction (AZD4547; 500 nM) | surviving fraction (AZD4547; 1000 nM) | surviving fraction (MK2206; 0.5 nM) | surviving fraction (MK2206; 1 nM) | surviving fraction (MK2206; 5 nM) | surviving fraction (MK2206; 10 nM) | surviving fraction (MK2206; 50 nM) | surviving fraction (MK2206; 100 nM) | surviving fraction (MK2206; 500 nM) | surviving fraction (MK2206; 1000 nM) |
| --- | --- | --- | --- | --- | --- | --- | --- | --- | --- | --- | --- | --- | --- | --- | --- | --- |
| HU09 BONE | 0.983 ± 0.077 | 0.982 ± 0.16 | 1.03 ± 0.089 | 1.07 ± 0.061 | 0.797 ± 0.066 | 0.856 ± 0.026 | 0.624 ± 0.062 | 0.419 ± 0.031 | 0.85 ± 0.065 | 0.971 ± 0.0053 | 0.991 ± 0.18 | 1.06 ± 0.094 | 0.849 ± 0.039 | 0.63 ± 0.05 | 0.363 ± 0.034 | 0.272 ± 0.016 |
| JIMT1 BREAST | 0.99 ± 0.016 | 1.03 ± 0.04 | 1.018 ± 0.0059 | 1.02 ± 0.0097 | 1.032 ± 0.0075 | 1.07 ± 0.032 | 1.05 ± 0.02 | 1.06 ± 0.03 | 0.965 ± 0.025 | 0.996 ± 0.017 | 0.999 ± 0.049 | 1.02 ± 0.01 | 0.929 ± 0.012 | 0.917 ± 0.027 | 0.68 ± 0.023 | 0.633 ± 0.034 |
| JURKAT HAEMATOPOIETIC AND LYMPHOID TISSUE | 1 ± 0.027 | 1.06 ± 0.036 | 1.01 ± 0.026 | 1.04 ± 0.021 | 0.967 ± 0.034 | 0.951 ± 0.033 | 1.04 ± 0.018 | 1 ± 0.035 | 1 ± 0.013 | 1.03 ± 0.03 | 0.92 ± 0.016 | 0.987 ± 0.022 | 0.871 ± 0.0053 | 0.787 ± 0.025 | 0.471 ± 0.01 | 0.274 ± 0.0046 |
| KPD BONE | 0.961 ± 0.049 | 0.945 ± 0.078 | 0.991 ± 0.094 | 0.984 ± 0.024 | 1 ± 0.067 | 0.956 ± 0.088 | 0.804 ± 0.039 | 0.642 ± 0.036 | 1 ± 0.043 | 0.979 ± 0.031 | 0.944 ± 0.075 | 0.931 ± 0.047 | 0.634 ± 0.013 | 0.467 ± 0.024 | 0.252 ± 0.0083 | 0.195 ± 0.0091 |
| LM7 BONE | 0.914 ± 0.098 | 0.959 ± 0.086 | 1.07 ± 0.044 | 0.982 ± 0.048 | 0.939 ± 0.064 | 0.985 ± 0.12 | 0.762 ± 0.034 | 0.571 ± 0.086 | 0.991 ± 0.019 | 0.998 ± 0.043 | 1.04 ± 0.046 | 1.03 ± 0.055 | 0.84 ± 0.069 | 0.818 ± 0.056 | 0.628 ± 0.041 | 0.579 ± 0.016 |
| MCF7 BREAST | 0.925 ± 0.062 | 0.918 ± 0.038 | 0.948 ± 0.074 | 0.931 ± 0.036 | 1 ± 0.069 | 0.9181 ± 0.0017 | 0.921 ± 0.066 | 0.924 ± 0.063 | 0.947 ± 0.046 | 0.942 ± 0.052 | 0.933 ± 0.044 | 0.916 ± 0.034 | 0.882 ± 0.065 | 0.841 ± 0.078 | 0.659 ± 0.033 | 0.62 ± 0.042 |
| MDAMB134 BREAST | 1.04 ± 0.28 | 1.04 ± 0.088 | 1.01 ± 0.083 | 0.922 ± 0.078 | 0.973 ± 0.14 | 0.899 ± 0.089 | 1.04 ± 0.028 | 1.05 ± 0.17 | 1 ± 0.079 | 0.89 ± 0.29 | 0.921 ± 0.0014 | 0.891 ± 0.14 | 0.703 ± 0.016 | 0.783 ± 0.072 | 0.629 ± 0.13 | 0.673 ± 0.18 |
| MDAMB157 BREAST | 0.981 ± 0.036 | 0.967 ± 0.12 | 0.932 ± 0.069 | 0.768 ± 0.035 | 0.642 ± 0.13 | 0.537 ± 0.048 | 0.562 ± 0.1 | 0.374 ± 0.039 | 0.952 ± 0.052 | 0.999 ± 0.02 | 1.06 ± 0.026 | 0.963 ± 0.081 | 0.96 ± 0.053 | 0.949 ± 0.019 | 0.947 ± 0.048 | 0.904 ± 0.1 |
| MDAMB231 BREAST | 0.973 ± 0.018 | 1.02 ± 0.025 | 1.009 ± 0.0064 | 1.02 ± 0.033 | 1.02 ± 0.019 | 1.06 ± 0.032 | 1.06 ± 0.035 | 1.06 ± 0.028 | 0.954 ± 0.019 | 1.006 ± 0.0089 | 0.976 ± 0.021 | 0.972 ± 0.024 | 0.903 ± 0.027 | 0.934 ± 0.033 | 0.869 ± 0.027 | 0.856 ± 0.011 |
| MDAMB361 BREAST | 0.908 ± 0.033 | 0.925 ± 0.028 | 1.04 ± 0.12 | 0.972 ± 0.064 | 0.967 ± 0.067 | 0.993 ± 0.061 | 0.851 ± 0.035 | 0.76 ± 0.052 | 0.985 ± 0.072 | 0.922 ± 0.076 | 0.826 ± 0.1 | 0.841 ± 0.031 | 0.768 ± 0.11 | 0.608 ± 0.019 | 0.353 ± 0.024 | 0.34 ± 0.026 |
| MDAMB436 BREAST | 1.05 ± 0.053 | 0.9823 ± 0.0041 | 1.03 ± 0.12 | 0.942 ± 0.08 | 0.978 ± 0.059 | 0.958 ± 0.062 | 1.07 ± 0.023 | 1.02 ± 0.024 | 1.02 ± 0.14 | 0.932 ± 0.087 | 0.954 ± 0.023 | 0.957 ± 0.068 | 0.928 ± 0.023 | 0.924 ± 0.11 | 0.828 ± 0.14 | 0.734 ± 0.088 |
| MDAMB453 BREAST | 1.02 ± 0.074 | 1.094 ± 0.01 | 1.106 ± 0.004 | 1.11 ± 0.056 | 1.1 ± 0.019 | 0.825 ± 0.021 | 0.565 ± 0.021 | 0.585 ± 0.025 | 1.1 ± 0.093 | 1.08 ± 0.039 | 1.11 ± 0.041 | 1.15 ± 0.035 | 1.12 ± 0.072 | 0.846 ± 0.013 | 0.327 ± 0.054 | 0.266 ± 0.019 |
| MDAMB468 BREAST | 1.04 ± 0.11 | 1.02 ± 0.055 | 1.13 ± 0.057 | 1.14 ± 0.062 | 1.02 ± 0.09 | 1.16 ± 0.096 | 1.06 ± 0.019 | 1.14 ± 0.042 | 1.07 ± 0.052 | 1.1 ± 0.076 | 1.1 ± 0.067 | 1.09 ± 0.052 | 0.966 ± 0.06 | 0.939 ± 0.073 | 0.666 ± 0.0078 | 0.595 ± 0.014 |
| MFM223 BREAST | 1.02 ± 0.11 | 1.03 ± 0.034 | 0.616 ± 0.056 | 0.374 ± 0.041 | 0.244 ± 0.018 | 0.254 ± 0.015 | 0.298 ± 0.015 | 0.3 ± 0.021 | 1.14 ± 0.047 | 1.12 ± 0.014 | 1.06 ± 0.038 | 1.14 ± 0.16 | 0.793 ± 0.077 | 0.661 ± 0.087 | 0.314 ± 0.053 | 0.224 ± 0.011 |
| MG63 BONE | 0.9447 ± 0.006 | 0.992 ± 0.012 | 0.929 ± 0.033 | 0.879 ± 0.048 | 0.662 ± 0.015 | 0.63 ± 0.041 | 0.576 ± 0.02 | 0.572 ± 0.018 | 0.987 ± 0.01 | 1.06 ± 0.049 | 1.04 ± 0.03 | 1.09 ± 0.047 | 0.95 ± 0.016 | 0.961 ± 0.03 | 0.793 ± 0.019 | 0.748 ± 0.017 |
| MHM BONE | 0.961 ± 0.016 | 1 ± 0.006 | 0.995 ± 0.016 | 0.993 ± 0.021 | 0.776 ± 0.014 | 0.694 ± 0.0087 | 0.587 ± 0.0075 | 0.582 ± 0.011 | 0.981 ± 0.021 | 0.9797 ± 0.0065 | 1.01 ± 0.024 | 1.05 ± 0.027 | 0.963 ± 0.035 | 0.959 ± 0.026 | 0.89 ± 0.04 | 0.8973 ± 0.0085 |
| NCIH441 LUNG | 0.977 ± 0.026 | 1.09 ± 0.035 | 1.06 ± 0.011 | 1.06 ± 0.066 | 1.01 ± 0.038 | 1.02 ± 0.026 | 0.934 ± 0.17 | 0.929 ± 0.093 | 1.08 ± 0.034 | 1.18 ± 0.017 | 1.11 ± 0.034 | 1.08 ± 0.11 | 1.01 ± 0.059 | 1.07 ± 0.041 | 1.04 ± 0.073 | 0.994 ± 0.028 |
| NOS1 BONE | 0.971 ± 0.12 | 1.07 ± 0.13 | 0.913 ± 0.013 | 0.937 ± 0.064 | 0.87 ± 0.093 | 0.824 ± 0.055 | 0.385 ± 0.025 | 0.187 ± 0.036 | 0.882 ± 0.11 | 0.883 ± 0.088 | 1.01 ± 0.1 | 1.04 ± 0.11 | 0.807 ± 0.14 | 0.734 ± 0.011 | 0.503 ± 0.038 | 0.454 ± 0.053 |
| NY BONE | 0.984 ± 0.052 | 1.03 ± 0.039 | 1.03 ± 0.049 | 0.894 ± 0.02 | 0.466 ± 0.0057 | 0.394 ± 0.019 | 0.359 ± 0.023 | 0.315 ± 0.026 | 1.03 ± 0.035 | 1.06 ± 0.024 | 1.05 ± 0.012 | 1.05 ± 0.033 | 0.96 ± 0.047 | 0.954 ± 0.023 | 0.882 ± 0.014 | 0.853 ± 0.017 |
| OS25HAL BONE | 0.99 ± 0.018 | 1.02 ± 0.02 | 1.037 ± 0.0085 | 1.04 ± 0.012 | 1.02 ± 0.016 | 1.036 ± 0.0095 | 0.948 ± 0.04 | 0.992 ± 0.018 | 0.998 ± 0.042 | 1.07 ± 0.028 | 1.07 ± 0.024 | 1.02 ± 0.026 | 0.813 ± 0.066 | 0.631 ± 0.085 | 0.301 ± 0.035 | 0.278 ± 0.021 |
